How the values were obtained:
[1] = Inhibition of FTase in human HCT-15 cells expressing high level of P-gp1 using Ras as substrate assessed as inhibition of substrate post-translation processing in presence of 20% human serum by immunoblot analysis; assay type: cell-based
[2] = Ratio of EC50 for inhibition of FTase in human HCT-116 cells expressing low level of P-gp1 using Ras as substrate assessed as inhibition of substrate post-translation processing in presence of 20% human serum to EC50 for inhibition of FTase in human HCT-116 cells expressing low level of P-gp1 using Ras as substrate assessed as inhibition of substrate post-translation processing in presence of 10% …; settings: condition cancer
[3] = Inhibition of FTase in human DLD-1 cells expressing moderate level of P-gp1 using Ras as substrate assessed as inhibition of substrate post-translation processing in presence of 10% human serum by immunoblot analysis; assay type: cell-based
[4] = Ratio of EC50 for inhibition of FTase in human DLD-1 cells expressing moderate level of P-gp1 using Ras as substrate assessed as inhibition of substrate post-translation processing in presence of 20% human serum to EC50 for inhibition of FTase in human DLD-1 cells expressing moderate level of P-gp1 using Ras as substrate assessed as inhibition of substrate post-translation processing in presence …; settings: condition cancer
[5] = system: HCT-116; assay: Inhibition of anchorage-independent growth in human HCT-116 cells assessed as inhibition of colony formation incubated for 14 days in presence of 10% FBS by imaging based soft agar colony formation assay; assay type: functional, cell-based; settings: HCT-116, 336 h
[6] = Inhibition of GGTase in H-Ras transformed mouse NIH3T3 cells using Rap 1A as substrate assessed as inhibition of substrate prenylation in presence of 10% bovine serum by immunoblot analysis; assay type: cell-based
[7] = Inhibition of FTase in human HCT-15 cells expressing high level of P-gp1 using Ras as substrate assessed as inhibition of substrate post-translation processing in presence of 10% FBS by immunoblot analysis; assay type: cell-based
[8] = system: HCT-116; assay: Inhibition of anchorage-independent growth in human HCT-116 cells assessed as inhibition of colony formation in presence of 10% FBS; assay type: functional, cell-based
[9] = Inhibition of FTase in human HCT-116 cells expressing low level of P-gp1 using Ras as substrate assessed as inhibition of substrate post-translation processing in presence of 20% human serum by immunoblot analysis; assay type: cell-based
[10] = system: NIH3T3; assay: Inhibition of anchorage-independent growth in H-Ras transformed mouse NIH3T3 cells assessed as inhibition of colony formation in presence of 10% bovine serum; assay type: functional, cell-based
[11] = Inhibition of FTase in human DLD-1 cells expressing moderate level of P-gp1 using Ras as substrate assessed as inhibition of substrate post-translation processing in presence of 10% FBS by immunoblot analysis; assay type: cell-based
[12] = Inhibition of recombinant bovine FTase incubated for 30 mins in presence of [3H]FPP by SPA based Topcount scintillation plate reader analysis; parameters: species or system Bos taurus
[13] = Inhibition of recombinant human FTase incubated for 30 mins in presence of [3H]FPP by SPA based Topcount scintillation plate reader analysis
[14] = Inhibition of FTase in human HCT-116 cells expressing low level of P-gp1 using Ras as substrate assessed as inhibition of substrate post-translation processing in presence of 10% FBS by immunoblot analysis; assay type: cell-based
[15] = Inhibition of recombinant bovine GGTase I incubated for 30 min sin presence of [3H]FPP by SPA based Topcount scintillation plate reader analysis; parameters: species or system Bos taurus
[16] = system: NIH3T3; assay: Inhibition of anchorage-independent growth in H-Ras transformed mouse NIH3T3 cells assessed as inhibition of colony formation incubated for 14 days in presence of 10% bovine serum by imaging based soft agar colony formation assay; assay type: functional, cell-based; settings: NIH3T3, 336 h
[17] = Inhibition of FTase in H-Ras transformed mouse NIH3T3 cells using Ras as substrate assessed as inhibition of substrate prenylation in presence of 10% bovine serum by immunoblot analysis; assay type: cell-based
[18] = Ratio of EC50 for inhibition of FTase in human HCT-15 cells expressing high level of P-gp1 using Ras as substrate assessed as inhibition of substrate post-translation processing in presence of 20% human serum to EC50 for inhibition of FTase in human HCT-15 cells expressing high level of P-gp1 using Ras as substrate assessed as inhibition of substrate post-translation processing in presence of 10% …; settings: condition cancer
[19] = Inhibition of FTase (unknown origin); parameters: species or system Homo sapiens
[20] = system: HCT-116; assay: Antitumor activity against human HCT-116 cells xenografted in nu/nu CD1 mouse assessed as reduction in tumor volume by measuring test to control ratio at 100 mg/kg, sc preinoculated with cells for 5 days followed by twice daily compound administration for 21 days and measured on day 22; assay type: functional; settings: time 22 day
[21] = system: HCT-116; assay: Antitumor activity against human HCT-116 cells xenografted in nu/nu CD1 mouse assessed as tumor volume at 100 mg/kg, sc preinoculated with cells for 5 days followed by twice daily compound administration for 21 days and measured on day 22 (reference value: 1436 +/- 263 mm^3); assay type: functional; settings: time 22 day
[22] = system: HCT-116; assay: Antitumor activity against human HCT-116 cells xenografted in nu/nu CD1 mouse assessed as increase in life span at 100 mg/kg, sc preinoculated with cells for 5 days followed by twice daily compound administration for 21 days and measured on day 22 relative to vehicle in time to 1 cm3 tumor; assay type: functional; settings: HCT-116, 528 h, time 22 day
[23] = system: HCT-116; assay: Antitumor activity against human HCT-116 cells xenografted in nu/nu CD1 mouse assessed as increase in life span at 30 mg/kg, ip preinoculated with cells for 5 days followed by once every 3 days compound administration for 4 times and measured on day 22 relative to vehicle in time to 1 cm3 tumor; assay type: functional; settings: HCT-116, 528 h, time 22 day
[24] = system: HCT-116; assay: Antitumor activity against human HCT-116 cells xenografted in nu/nu CD1 mouse assessed as reduction in tumor volume by measuring test to control ratio at 30 mg/kg, ip preinoculated with cells for 5 days followed by once every 3 days compound administration for 4 times and measured on day 22; assay type: functional; settings: time 22 day
[25] = system: HCT-116; assay: Antitumor activity against human HCT-116 cells xenografted in nu/nu CD1 mouse assessed as tumor volume at 30 mg/kg, ip preinoculated with cells for 5 days followed by once every 3 days compound administration for 4 times and measured on day 22 (reference value: 1861 +/- 410 mm^3); assay type: functional; settings: time 22 day
[26] = system: HCT-116; assay: Antitumor activity against human HCT-116 cells xenografted in nu/nu CD1 mouse assessed as increase in life span at 50 mg/kg, ip preinoculated with cells for 14 days followed by once every 4 days compound administration for 4 times and measured on day 40 relative to vehicle in time to 1 cm^3 tumor; assay type: functional; settings: HCT-116, 960 h, time 40 day

SMILES	EC50 [1]	Ratio EC50 [2]	EC50 [3]	Ratio EC50 [4]	EC50 [5]	EC50 [6]	EC50 [7]	EC50 [9]	EC50 [11]	IC50 [12]	IC50 [13]	EC50 [14]	IC50 [15]	EC50 [16]	EC50 [17]	Ratio EC50 [18]	also measured
NC(=O)N1CCC(CC(=O)N2CCC([C@H]3c4ncc(Br)cc4CCc4cc(Cl)cc(Br)c43)CC2)CC1 [LONAFARNIB]	0.21 µM	1.9	0.023 µM	1.9	0.094 µM	> 30 µM	0.037 µM	0.049 µM	0.012 µM	0.0078 µM	0.0049 µM	0.016 µM	> 10 µM	0.056 µM	0.16 µM	1.9	EC50 [8]: 0.074 µM; EC50 [10]: 0.05 µM
Cn1cncc1C(O)(COc1ccc(C#N)cc1-c1ccc(OC(F)(F)F)cc1)c1ccc(C#N)cc1 (stereo not drawn)	–	–	–	–	–	–	–	–	–	–	–	–	–	–	0.002 µM	–	EC50 [19]: 0.0006 µM
Cn1cncc1[C@@](N)(c1ccc(Cl)cc1)c1ccc2c(c1)c(-c1cccc(Cl)c1)cc(=O)n2C [TIPIFARNIB]	0.0049 µM	4.4	0.0031 µM	4.4	0.024 µM	> 30 µM	0.00055 µM	0.0067 µM	0.00069 µM	0.057 µM	0.00045 µM	0.00098 µM	1.04 µM	0.0037 µM	0.0023 µM	4.4	T/C [20]: 56%; Activity [21]: 820 mm3; ILS at 100 mg/kg [22]: 39%
Nc1ccn([C@@H]2O[C@H](CO)[C@@H](O)C2(F)F)c(=O)n1 [GEMCITABINE]	–	–	–	–	–	–	–	–	–	–	–	–	–	–	–	–	ILS at 30 mg/kg [23]: 112%; T/C [24]: 22%; Activity [25]: 359 mm3
CCc1c2c(nc3ccc(OC(=O)N4CCC(N5CCCCC5)CC4)cc13)-c1cc3c(c(=O)n1C2)COC(=O)[C@]3(O)CC [IRINOTECAN]	–	–	–	–	–	–	–	–	–	–	–	–	–	–	–	–	ILS at 50 mg/kg [26]: 200%

— ChEMBL document CHEMBL5678796, “A highly potent and selective farnesyltransferase inhibitor ABT-100 in preclinical studies” (Anticancer Drugs, 2005)
